{"source": "patent US8618068B2", "about": "“Methods and low dose regimens for treating red blood cell disorders” (priority 2009, dated 2013)", "key": {"[1]": {"system": "γ-globin mRNA", "assay": "γ-globin mRNA in μLCR-human Aγ-globin transgenic mice", "assay_type": "in vivo", "details": "after treatment with DMB", "excerpt": "(§1) Transgenic mice containing the human β globin gene locus in a yeast artificial chromosome (βYAC) displaying the correct developmental regulation of ε-, γ-, and β-globin genes (with a silenced y-globin gene in the adult stage) were used to study the effects of DMB on γ-globin induction and erythroid cell production. In the μLCR-human A γ-globin transgenic mice, the y-globin mRNA expression relative to murine α-globin mRNA was increased by a mean of 1.8-fold above the baseline after treatment with DMB. In the βYAC transgenic mice at intraperitoneal (IP) doses of 500 mg/kg/day, DMB induced a 2-fold increase in human γ-globin mRNA synthesis relative to that of total non-α-globin. This level of induction was similar to that seen with 1,000 mg/kg/day of butyrate, and the changes were observed from 3 days after treatment initiation and persisted until 3 to 5 days after treatment termination."}, "[2]": {"system": "reticulocyte counts", "assay": "Reticulocyte counts in transgenic mice", "assay_type": "in vivo", "details": "500 mg/kg/day", "excerpt": "as §1\nReticulocytosis was observed from day 3 up to day 12 (at the end of sampling)."}, "[3]": {"system": "F-cells", "assay": "F-cells in Bfu-e erythroid progenitor cultures", "assay_type": "cell-based"}, "[4]": {"assay": "Dose range-finding embryo/fetal developmental toxicity in rats", "assay_type": "in vivo", "method": "DMB was administered orally by gavage to 4 groups of 8 bred female Sprague Dawley rats once daily from gestation Days 6 through 17, at dosage levels of 50, 150, 500 and 1000 mg/kg/day. […] On gestation Day 20, a laparohysterectomy was performed on each surviving female."}, "[5]": {"assay": "clinical", "details": "human, in vivo", "method": "The first clinical study was a phase 1, double-blind, placebo-controlled, single dose study of the tolerability, safety and pharmacokinetics of DMB in 32 healthy volunteers. Healthy, fasting adult volunteers received single oral doses of DMB or placebo capsules at one of four dose levels (2 mg/kg, 5 mg/kg, 10 mg/kg and 20 mg/kg). Six subjects received study drug (24 subjects total) and 2 subjects received placebo at each dose level. The 8 placebo subjects received a capsule containing only the excipients from the capsules containing the active agent. Subjects at the 20 mg/kg also received a second dose of study drug after a defined meal, one week following the fasting dose.\nDMB was rapidly absorbed after oral administration, with peak concentrations of DMB occurring at 0.5 to 3 hours after dosing, followed by a mono-exponential decay phase, consistent with linear pharmacokinetics (FIG. 7; FIG. 8). Inter-subject variability in the primary PK parameters appears to be low, especially at higher doses."}, "[6]": {"assay": "Phase 1 repeat-dose clinical study, safety", "assay_type": "in vivo, human", "method": "DMB was evaluated in a phase 1, placebo-controlled, randomized, repeat dose clinical study that evaluated tolerability, safety, and pharmacokinetics in healthy volunteers. A total of 41 subjects (31 receiving active drug and 10 receiving placebo) completed 14 consecutive days of study medication at daily dose levels of 5, 10 or 15 mg/kg (10 subjects received placebo). Given the importance of iron in red blood cell production, and the requirement for iron supplementation for induction of HbF with other erythropoietic agents, subjects at all 3 dose levels received oral ferrous gluconate on the study medication days. DMB was administered with food to all but one group (5 mg/kg, cohort 1). Subjects were admitted and observed for 24 hours following initial dosing. Thereafter, the study drug was taken once per day at home, except for the last study day. The subjects were monitored weekly for 6 weeks. Thirty-seven subjects completed the study and 4 subjects dropped out due to conflicts. Safety and PK data are available on these subjects.\nThe treatment groups included: Cohort 1: 5 mg/kg fasting, 6 active, 2 placebo; Cohort 2: 5 mg/kg with food, 7 active, 2 placebo (3 drop outs); Cohort 3: 5 mg/kg with food and iron supplements, 6 active, 2 placebo (1 drop out); Cohort 4: 10 mg/kg with food and iron supplements, 6 active, 2 placebo; and Cohort 5: 15 mg/kg with food and iron supplements, 6 active, 2 placebo. Subjects in Cohorts 3, 4, and 5 received a single daily dose of ferrous gluconate (325 mg). The iron supplement was administered to evaluate study medication tolerability when taken with iron. No subjects discontinued due to AEs or safety concerns. Fewer subjects reported an event in the highest dose cohort following eating a meal ([…]) than were reported in the lower dose cohorts ([…], 5 and 10 mg/kg).\nThe AEs observed in this study are described in Table 11. All events were assessed as mild by the Principal Investigator and resolved either on study or post study. No SAEs were reported. Two subjects had transient lymphadenopathy that were not considered related to study medication. No laboratory abnormalities of significance were noted except one patient developed a urinary tract infection. No clinically significant ECG abnormalities were noted."}, "[7]": {"assay": "Phase 2 trial in sickle cell disease patients, safety", "assay_type": "in vivo, human", "details": "10, 20, 30 mg/kg/day", "method": "A randomized, blinded dose-ranging Phase 1/2 clinical trial was performed in 24 US and Jamaican adult patients with sickle cell disease (including HbSS or S/β thalassemia). DMB was administered once daily for six week cycles of daily therapy with a 2 week treatment break between two cycles, then followed by a final 4 weeks without treatment. Three dose levels (10, 20, 30 mg/kg/day) were studied sequentially. Four out of 24 subjects were treated with placebo and 21 subjects were evaluable. Seven Patients (5 active/2 placebo) at 10 mg/kg, 6 patients (5 active/1 placebo) at 20 mg/kg, and 9 patients (7 active/1 placebo) at 30 mg/kg were randomized in the study. Patients ranged in age from 14 to 56 with a median age of 31 and were comprised of […]. Patients were followed for hematologic parameters focusing on fetal hemoglobin (HbF). HbF was measured by a Waters Empower 32 HPLC system with a Synchropak CM-300 column."}}, "data": [{"smiles": "CCC(C)(C)C(=O)[O-].[Na+]", "note": "[DMB, Sodium 2,2-dimethylbutyrate]", "values": [{"measurement": "γ-globin mRNA expression relative to murine α-globin mRNA, mean increase above baseline", "setting": "[1]", "value": 1.8, "unit": "fold"}, {"measurement": "increase in reticulocyte counts", "setting": "[2]", "value": "approximately 6.7 fold"}, {"measurement": "F-cells increase above F-cell levels in control cultures", "setting": "[3]", "value": "32-71%"}, {"measurement": "maternal or fetal effects", "setting": "[4]; 50 mg/kg/day", "value": "No maternal or fetal effects"}, {"measurement": "postimplantation loss", "setting": "[4]; 150 mg/kg/day", "value": "Increased postimplantation loss"}, {"measurement": "acceptability of dosage for a definitive embryo/fetal developmental toxicity study", "setting": "[4]; rat, in vivo", "value": "considered unacceptable"}, {"measurement": "CL/F", "setting": "[5]", "value": "0.267 to 1.03", "unit": "mL/min/kg"}, {"measurement": "Vd", "setting": "[5]", "value": "0.204 to 0.426", "unit": "L/kg"}, {"measurement": "doses achieving biologically active plasma drug levels", "setting": "[5]", "value": "≥ 10", "unit": "mg/kg"}, {"measurement": "half-life", "setting": "[5]", "value": "5.5 to 11.6", "unit": "h"}, {"measurement": "AUC(0-inf)", "setting": "[5]; 2 mg/kg", "value": "38 ± 23", "unit": "µg·h/mL"}, {"measurement": "AUC", "setting": "[5]; 5 mg/kg", "value": 38.3, "unit": "µg·h/mL"}, {"measurement": "AUC(0-inf)", "setting": "[5]; 5 mg/kg", "value": "320 ± 40", "unit": "µg·h/mL"}, {"measurement": "AUC(0-inf)", "setting": "[5]; 10 mg/kg", "value": "538 ± 125", "unit": "µg·h/mL"}, {"measurement": "AUC", "setting": "[5]; 20 mg/kg", "value": 1190, "unit": "µg·h/mL"}, {"measurement": "AUC(0-inf)", "setting": "[5]; 20 mg/kg", "value": "1190 ± 243", "unit": "µg·h/mL"}, {"measurement": "effect of food on AUCINF", "setting": "[5]; 20 mg/kg", "value": "no effects were observed"}, {"measurement": "Cmax", "setting": "[5]; 20 mg/kg, mean Cmax", "value": 89, "unit": "µg/mL"}, {"measurement": "time of peak concentrations after dosing", "setting": "[5]; po", "value": "0.5 to 3", "unit": "h"}, {"measurement": "SAEs reported", "setting": "[6]; 5, 10, 15 mg/kg for 14 days", "value": "No SAEs"}, {"measurement": "dose limiting toxicity", "setting": "[6]; 5, 10, 15 mg/kg for 14 days", "value": "No dose limiting toxicity"}, {"measurement": "tolerability", "setting": "[6]; 5 to 15 mg/kg/day for 14 consecutive days", "value": "well-tolerated"}, {"measurement": "Subject incidence of Abdominal pain", "setting": "[6]; DMB N = 31", "value": 3, "unit": "%"}, {"measurement": "Subject incidence of Contusion of elbow", "setting": "[6]; DMB N = 31", "value": 3, "unit": "%"}, {"measurement": "Subject incidence of Diarrhea", "setting": "[6]; DMB N = 31", "value": 6, "unit": "%"}, {"measurement": "Subject incidence of Fatigue", "setting": "[6]; DMB N = 31", "value": 3, "unit": "%"}, {"measurement": "Subject incidence of Flatulence", "setting": "[6]; DMB N = 31", "value": 6, "unit": "%"}, {"measurement": "Subject incidence of Gastritis", "setting": "[6]; DMB N = 31", "value": 3, "unit": "%"}, {"measurement": "Subject incidence of Gastroenteritis", "setting": "[6]; DMB N = 31", "value": 3, "unit": "%"}, {"measurement": "Subject incidence of Headache", "setting": "[6]; DMB N = 31", "value": 23, "unit": "%"}, {"measurement": "Subject incidence of Light-headedness", "setting": "[6]; DMB N = 31", "value": 3, "unit": "%"}, {"measurement": "Subject incidence of Lymphadenopathy, inguinal", "setting": "[6]; DMB N = 31", "value": 3, "unit": "%"}, {"measurement": "Subject incidence of Menstrual cramps", "setting": "[6]; DMB N = 31", "value": 6, "unit": "%"}, {"measurement": "Subject incidence of Nausea", "setting": "[6]; DMB N = 31", "value": 6, "unit": "%"}, {"measurement": "Subject incidence of Pharyngeal erythema", "setting": "[6]; DMB N = 31", "value": 3, "unit": "%"}, {"measurement": "Subject incidence of Pharyngitis", "setting": "[6]; DMB N = 31", "value": 6, "unit": "%"}, {"measurement": "Subject incidence of Pregnancy", "setting": "[6]; DMB N = 31", "value": 3, "unit": "%"}, {"measurement": "Subject incidence of Reflux esophagitis", "setting": "[6]; DMB N = 31", "value": 3, "unit": "%"}, {"measurement": "Subject incidence of Spasm, esophageal", "setting": "[6]; DMB N = 31", "value": 3, "unit": "%"}, {"measurement": "Subject incidence of Sunburn", "setting": "[6]; DMB N = 31", "value": 3, "unit": "%"}, {"measurement": "Subject incidence of Upper respiratory infection", "setting": "[6]; DMB N = 31", "value": 3, "unit": "%"}, {"measurement": "Subject incidence of Urinary tract infection", "setting": "[6]; DMB N = 31", "value": 3, "unit": "%"}, {"measurement": "Subject incidence of Vaginal candidiasis", "setting": "[6]; DMB N = 31", "value": 3, "unit": "%"}, {"measurement": "tolerability", "setting": "[7]", "value": "well tolerated"}]}]}
